We go through one substance from PMC12856317, “A reversible feedback mechanism regulating mitochondrial heme synthesis” (The Journal of Biological Chemistry, 2025).

Changes are numbered by the printed parent chain.

Broadly, the Kd is the equilibrium constant for the complex coming apart. A low value points to higher affinity.

Assay [1] concerns the target T1, human ALAS2 Cys-mut (C70A/C555A/C558A) (Homo sapiens, UniProt P22557, C555A/C558A/C70A).
T1 construct: Site-directed mutagenesis was performed on the mature ALAS2 (residues 54–587) construct to generate truncations and cysteine mutants; His6-SUMO (N, cleaved yes); made in house; host or cells: Escherichia coli BL21-Codon Plus (DE3)-RIL
T1 sequence (P22557 54-587 C70A/C555A/C558A): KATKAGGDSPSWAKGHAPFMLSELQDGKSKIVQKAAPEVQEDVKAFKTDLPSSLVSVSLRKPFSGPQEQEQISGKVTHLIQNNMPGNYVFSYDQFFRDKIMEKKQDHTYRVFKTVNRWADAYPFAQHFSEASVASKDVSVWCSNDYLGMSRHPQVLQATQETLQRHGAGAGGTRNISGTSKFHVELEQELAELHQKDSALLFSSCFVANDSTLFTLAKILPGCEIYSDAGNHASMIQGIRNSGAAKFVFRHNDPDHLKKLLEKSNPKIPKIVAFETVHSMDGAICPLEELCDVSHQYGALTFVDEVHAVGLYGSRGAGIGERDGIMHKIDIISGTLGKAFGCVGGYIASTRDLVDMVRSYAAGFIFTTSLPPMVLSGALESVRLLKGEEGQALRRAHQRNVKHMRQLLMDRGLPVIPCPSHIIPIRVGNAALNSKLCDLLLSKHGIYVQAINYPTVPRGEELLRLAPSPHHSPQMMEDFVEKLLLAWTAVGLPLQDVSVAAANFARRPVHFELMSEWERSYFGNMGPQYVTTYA
Description: Isothermal titration calorimetry, hemin-protein interaction. The class given is binding. The conditions noted are these: ITC, 25 °C. The procedure:
Binding curves of the hemin-protein interaction were determined using Nano-ITC instrument (TA instruments) at 25 °C. Hemin was dissolved in 1 M NaOH and autoclaved to prepare a stock solution of 746 μM, ε385nm = 58,440 M^−1 cm^−1. The stock solution was diluted to 1.5 μM in titration buffer containing 25 mM Hepes, pH 7, 150 mM KCl, and 0.5 mM TCEP. Protein samples were dialyzed into the titration buffer and diluted to a final concentration of 40 μM. Fixed volumes of protein were injected at 200-s intervals into the cell containing hemin. An A + B hetero-association model was used to determine the thermodynamic parameters for each variant. Data were integrated and analyzed using NITPIC and SEDPHAT and visualized using GUSSI ([71], [72], [73]).

Assay [2] deals with T2, WT holoALAS2 (residues 54–587) (Homo sapiens, UniProt P22557).
T2 construct: His6-SUMO (N, cleaved yes); made in house; host or cells: Escherichia coli BL21-Codon Plus (DE3)-RIL
T2 sequence (P22557 54-587): T1 sequence (P22557 54-587 C70A/C555A/C558A) with A17C, A502C, A505C
Description: Succinyl-CoA:hemin competition analysis. The class given is biochemical. As to conditions: WT holoenzyme. The procedure:
A discontinuous colorimetric activity assay adapted from Shoolingin-Jordan et al. and Bailey et al. was used to measure the enzyme activity ([48], [74]). The reaction was initiated by adding 100 nM purified enzyme to 50 mM potassium phosphate, pH 7.0, 10 mM MgCl2, 1 mM DTT, 100 mM glycine, and 300 μM succinyl-CoA (175 μl total). The reaction was incubated at 37 °C for 15 min and terminated with 100 μl of cold 10% trichloroacetic acid. The precipitated protein was removed by centrifugation for 5 min at 13,000g, and 240 μl of the supernatant was mixed with 240 μl of 1 M sodium acetate, pH 4.6. To derivatize ALA, 20 μl of acetylacetone was added to the mixture and boiled at 100 °C for 10 min. After the sample was cooled for 20 min, 100 μl aliquots were transferred into a clear 96-well plate in triplicate. An equal volume of Ehrlich’s reagent (p-Dimethylaminobenzaldehyde, DMAB) was added to each well, and the absorbance was monitored at 553 nm using a microplate reader (Thermo Fisher Scientific). The peak absorbance value was converted to molar ALA concentration using ε553 = 60,400 M^−1 cm^−1.
For inhibitor competition experiments, the apoenzymes were preincubated with hemin or PLP (0–100 μM) for 15 min at 25 °C in the dark before initiating the reaction. Next, either PLP or hemin (0–100 μM) was titrated into the reactions to measure enzyme activation after hemin inhibition or enzyme inhibition of the PLP-treated apoenzyme, respectively. For succinyl-CoA:hemin competition analyses, the WT holoenzyme was mixed with hemin (0, 25, 50, and 100 μM), followed by the addition of increasing succinyl-CoA concentrations (0, 25, 50, 100, 250, and 500 μM). All experiments were performed with a minimum of three biological replicates, each with three technical replicates. Data were fit using nonlinear regression to generate an agonist dose-response curve (EC50) or an inhibitor dose-response curve (IC50). Lineweaver-Burk analysis was performed using the resulting kinetic parameters (Vmax and KM) in GraphPad Prism 10.

[3] abbreviates: 95% confidence interval in brackets.

With ferric chloride heme [hemin], in assay [1], the ΔG was -35.5 kJ/mol and the ΔS is recorded as −1.18 kcal/mol K. Moreover, in assay [1] (setting [3]), the Kd turned out to be 0.61 µM and the ΔH is −361 [−561, −280] kcal/mol. Besides, in assay [2] (heme versus no heme, varied succinyl-CoA), the “fold lower Vmax” value was found to be 8 fold. Also, the mode of inhibition entry in assay [2] (varied succinyl-CoA and heme) was “uncompetitively”.
